Columns and labels:
[1] = side effects of glycyrrhetinic acid in the quantities a person could use per day; assay type: in vivo, human; conditions: in the quantities that a person could use per day
From the text: For medication to be placed in the patch or blob, any of the above-mentioned antimicrobials, or similar antimicrobials, may be used. […] The preferred quantity of glycyrrhetinic acid in each patch or blob is 5 to 7%.

mouth sores = experiment: experimentation with amoxicillin on conventional patches; assay type: in vivo; conditions: conventional amoxicillin powder for oral suspension, mixed into the patch and dried
From the text: Because use of antibiotics, antibacterials, and other pharmaceutical antimicrobials causes adverse side affects, experimentation with these medications has been limited. […] Conventional amoxicillin powder for preparation of oral suspension was used, which includes sugars and other excipients. The sugars act as a binder to the oral patch. The oral suspension is mixed into the patch or blob and dried. Preferably, the amoxicillin powder is mixed into a stronger than normal liquid before being added to the patch or blob.

Compound	side effects [1]	effect of amoxicillin on conventional patches (mouth sores)
CC1(C)[C@@H](O)CC[C@]2(C)[C@H]3C(=O)C=C4[C@@H]5C[C@@](C)(C(=O)O)CC[C@]5(C)CC[C@@]4(C)[C@]3(C)CC[C@@H]12 [glycyrrhetinic acid]	no side affects have been discovered	–
CC1(C)S[C@@H]2[C@H](NC(=O)[C@H](N)c3ccc(O)cc3)C(=O)N2[C@H]1C(=O)O [amoxicillin]	–	works quite well

Reference: US20070098648A1, “Treating mouth sores caused by dental braces with blobs of hydrophilic gums” (priority 2002, published 2007)
